Consider 7 compounds from patent US20200385371A1 (Propellon Therapeutics Inc., priority 2017, published 2020).

One may read the Kd as the constant that tells how readily two partners part at equilibrium. In general, EC50 refers to the concentration that produces a half-maximal response. For orientation: IC50 means the point on the concentration scale where inhibition reaches its midpoint.

Test [1] addresses T1, WDR5 (Homo sapiens, UniProt P61964). In words: Surface Plasmon Resonance (SPR) assay. The format is binding. Further details: Full length WDR5 with an N-terminal His tag and C-terminal AviTag; His tag (N); made in house; host or cells: E. coli. The settings on record: read-out: SPR Kd. Summed up:
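Full-length biotinylated WDR5 (N-His, C-AviTag, E. coli) captured (~3000 RU) on streptavidin SA chip; Biacore T200. HBS-EP pH 7.4 plus 5% DMSO running buffer, 40 μl/min.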

In another test the test system is MV4-11 cells. In words: Cell proliferation assay (ATPlite). The test is classed as cell-based. As to conditions: Homo sapiens, 120 h; MV4-11 cells, five days; read-out: GI MV411 EC50. Summed up: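 Cells seeded at 1,000/well in Alpha-MEM with 10% FBS, treated with compound over a 10-point range (top 10 μM) or DMSO. Grown five days at 37° C, 5% CO2; viability by ATPlite luminescence.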
In general terms: Cellular ATP, detected with luciferase, serves as a proxy for viable cell number.

Test [2] deals with T1, WDR5. In words: Fluorescence Polarization (FP) binding assay. Put shortly: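 Displacement of fluorescein-labelled H3 (1-15) (30 nM, with 0.3 μM WDR5) or 9-Ala-FAM (20 nM, with 0.05 μM WDR5) in 80 mM sodium phosphate pH 6.5, 20 mM KCl, 0.008% Triton X-100. FP read at 485/528 nm (H3) or 480/540 nm (9-Ala-FAM); Kdisp from hyperbolic fit, mean of quadruplicates.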
For orientation: Fluorescence polarisation rises when a labelled molecule tumbles more slowly, as on binding a larger partner.

Regarding `C[C@@H]1CN(c2cc(F)c(C3=CCCN(c4ncc(F)cn4)C3)c(F)c2NC(=O)c2c[nH]c(=O)cc2C(F)(F)F)C[C@H](C)N1C` [Example 146, N-(2,4-difluoro-3-(1-(5-fluoropyrimidin-2-yl)-1,2,5,6-tetrahydropyridin-3-yl)-6-((3S,5R)-3,4,5-trimethylpiperazin-1-yl)phenyl)-6-oxo-4-(trifluoromethyl)-1,6-dihydropyridine-3-carboxamide], the Kd at WDR5 [1] was 1.65 nM. Besides, the EC50 in the test on MV4-11 cells came to 239 nM. For the same compound, the IC50 at WDR5 [2] came out at 21 nM.

As for `C[C@@H]1CN(c2cc(F)c(C3=CCN(c4ncc(F)cn4)C3)c(F)c2NC(=O)c2c[nH]c(=O)cc2C(F)(F)F)C[C@H](C)N1C` [Example 147, N-(2,4-difluoro-3-(1-(5-fluoropyrimidin-2-yl)-2,5-dihydro-1H-pyrrol-3-yl)-6-((3S,5R)-3,4,5-trimethylpiperazin-1-yl)phenyl)-6-oxo-4-(trifluoromethyl)-1,6-dihydropyridine-3-carboxamide], the Kd on WDR5 [1] amounted to 0.71 nM. For the same compound, in the test with MV4-11 cells, the EC50 was determined as 37.6 nM. The IC50 on WDR5 [2] is 19.5 nM.

For `C[C@@H]1CN(c2cc(F)c(C3=CCN(c4ncc(C#N)s4)CC3)c(F)c2NC(=O)c2c[nH]c(=O)cc2C(F)(F)F)C[C@H](C)N1C` [Example 148, N-(3-(1-(5-cyanothiazol-2-yl)-1,2,3,6-tetrahydropyridin-4-yl)-2,4-difluoro-6-((3S,5R)-3,4,5-trimethylpiperazin-1-yl)phenyl)-6-oxo-4-(trifluoromethyl)-1,6-dihydropyridine-3-carboxamide], at WDR5 [1], the Kd came to 2.09 nM. Further, in the test on MV4-11 cells, the EC50 is 74.9 nM. Moreover, the IC50 on WDR5 [2] turned out to be 12.9 nM.

Regarding `C[C@@H]1CN(c2cc(F)c(C3=CCCN(c4ncc(C#N)s4)C3)c(F)c2NC(=O)c2c[nH]c(=O)cc2C(F)(F)F)C[C@H](C)N1C` [Example 149, N-(3-(1-(5-cyanothiazol-2-yl)-1,2,5,6-tetrahydropyridin-3-yl)-2,4-difluoro-6-((3S,5R)-3,4,5-trimethylpiperazin-1-yl)phenyl)-6-oxo-4-(trifluoromethyl)-1,6-dihydropyridine-3-carboxamide], the Kd at WDR5 [1] was 1.8 nM. The EC50 in the test on MV4-11 cells worked out at 106 nM. Also, the IC50 on WDR5 [2] is 14.6 nM.

Turning to `C[C@@H]1CN(c2cc(F)c(C3=CCN(c4ncc(C#N)s4)C3)c(F)c2NC(=O)c2c[nH]c(=O)cc2C(F)(F)F)C[C@H](C)N1C` [Example 150, N-(3-(1-(5-cyanothiazol-2-yl)-2,5-dihydro-1H-pyrrol-3-yl)-2,4-difluoro-6-((3S,5R)-3,4,5-trimethylpiperazin-1-yl)phenyl)-6-oxo-4-(trifluoromethyl)-1,6-dihydropyridine-3-carboxamide], on WDR5 [1], the Kd came out at 0.53 nM. Moreover, in the test with MV4-11 cells, the concentration giving a half-maximal response (EC50) is 48.4 nM. At WDR5 [2], the IC50 turned out to be 12.9 nM.

For `C[C@@H]1CN(c2cc(F)c(C3=CCN(c4ccnc(C#N)n4)CC3)c(F)c2NC(=O)c2c[nH]c(=O)cc2C(F)(F)F)C[C@H](C)N1C` [Example 152, N-(3-(1-(2-cyanopyrimidin-4-yl)-1,2,3,6-tetrahydropyridin-4-yl)-2,4-difluoro-6-((3S,5R)-3,4,5-trimethylpiperazin-1-yl)phenyl)-6-oxo-4-(trifluoromethyl)-1,6-dihydropyridine-3-carboxamide], on WDR5 [1], the Kd came to 0.68 nM. Also, the EC50 with MV4-11 cells stood at 24 nM. Further, at WDR5 [2], the IC50 stood at 15.3 nM.

Consider `Cc1sc(-c2c(F)cc(N3CCN(C)[C@@H](C)C3)c(NC(=O)c3ccc(F)cc3C(F)F)c2F)nc1C(=O)N1CCCC1` [Example 153, (S)-2-(difluoromethyl)-N-(6-(3,4-dimethylpiperazin-1-yl)-2,4-difluoro-3-(5-methyl-4-(pyrrolidine-1-carbonyl)thiazol-2-yl)phenyl)-4-fluorobenzamide], for which the Kd at WDR5 [1] is 1.18 nM. The EC50 in the test on MV4-11 cells came to 70.1 nM. Moreover, the IC50 on WDR5 [2] was found to be 5 nM.
